Experimental data reported in publication PMC8117417, “Novel Trifluoromethyl Pyrimidinone Compounds With Activity Against Mycobacterium tuberculosis” (Frontiers in Chemistry, 2021).
≈ marks a conversion by molar mass, not a printed value.

Experiments:
[1] = test system: M. tuberculosis H37Rv; test: Minimum inhibitory concentration (IC90) against fluorescent M. tuberculosis in liquid culture; conditions: for IC90: read-out: MTB IC90; for IC90 / MTB IC90: concentration required to inhibit M. tuberculosis growth by 90%, aerobic culture, 5 days, 7H9-OADC-Tw
[2] = test system: HepG2 human liver cells; test: Cytotoxicity against HepG2 cells (CellTiter-Glo); type: cell-based; conditions: concentration required to inhibit growth of HepG2 cells by 50%, 72 h exposure
Experimental: Cytotoxicity was measured after 72 h of compound exposure at 37°C and 5% CO2 using CellTiter-Glo (Promega).

[3] = MTB IC90 assay, Figure 1 primary hits and reference drugs in this assay

Molecule | melting point | IC90 [1] | IC50 ([2]; Homo sapiens, HepG2, 72 h) | MIC [1, 3] | further results
Cc1c(C(F)(F)F)nc(-c2ccccc2O)[nH]c1=O [Compound 46, 2-(2-Hydroxyphenyl)-5-Methyl-6-(Trifluoromethyl)Pyrimidin-4(3H)-One] | 270 to 271 °C | > 20 µM | 44 ± 7.8 µM |  | 
5-Cyclopentyl-2-(Pyridin-2-yl)-6-(Trifluoromethyl)Pyrimidin-4(3H)-One [Compound 57] |  | 10 ± 2.6 µM |  |  | IC50 [2]: 5.9 ± 0.57 µM
Cc1nc(-c2ccccn2)[nH]c(=O)c1C [Compound 49, 5,6-Dimethyl-2-(Pyridin-2-yl)Pyrimidin-4(3H)-One] |  | > 20 µM | 88 ± 6.9 µM |  | 
CCCCc1c(C(F)(F)F)nc(-c2ccccn2)[nH]c1=O [Compound 2] |  |  | 5.3 ± 1.2 µM | 6.8 ± 2.0 µM (≈ 2.02 µg/mL) | 
O=c1cc(C(F)(F)F)nc(-c2ccccn2)[nH]1 [Compound 16, 2-(Pyridin-2-yl)-6-(Trifluoromethyl)Pyrimidin-4(3H)-One] |  | 4.9 ± 0.79 µM | > 100 µM |  | HepG2 IC50 [2]: lacked cytotoxicity
Cc1c(C(F)(F)F)nc(-c2cccnc2)[nH]c1=O [Compound 22, 5-Methyl-2-(Pyridin-3-yl)-6-(Trifluoromethyl)Pyrimidin-4(3H)-One] | 213 to 215 °C | > 20 µM | > 100 µM |  | 
COc1cccnc1-c1nc(C(F)(F)F)c(C)c(=O)[nH]1 [Compound 39, 2-(3-Methoxypyridin-2-yl)-5-Methyl-6-(Trifluoromethyl)Pyrimidin-4(3H)-One] | 164 to 165 °C | > 20 µM | > 100 µM |  | 
O=c1cc(C(F)(F)F)nc(-c2ccccc2F)[nH]1 [Compound 28, 2-(2-Fluorophenyl)-6-(Trifluoromethyl)Pyrimidin-4(3H)-One] | 168 to 169 °C | > 20 µM | > 100 µM |  | 
Cc1c(C(F)(F)F)nc(C2CCCCC2)[nH]c1=O [Compound 40, 2-Cyclohexyl-5-Methyl-6-(Trifluoromethyl)Pyrimidin-4(3H)-One] | 169 to 170 °C | > 20 µM | > 100 µM |  | 
O=c1[nH]c(-c2ccccn2)nc(C(F)(F)F)c1CC1CC1 [Compound 11] |  | 7.9 ± 2.1 µM | 11 ± 4.7 µM | 7.9 ± 2.1 µM (≈ 2.33 µg/mL) | 
Cc1c(C(F)(F)F)nc[nH]c1=O [Compound 32, 5-Methyl-6-(Trifluoromethyl)Pyrimidin-4(3H)-One] | 183 to 185 °C | > 20 µM | > 100 µM |  | MTB IC90 [1]: no antibacterial activity
NNC(=O)c1ccncc1 [isoniazid, reference compound] |  |  |  | 0.6 ± 0.2 µM (≈ 0.0823 µg/mL) | 
O=c1cc(C(F)(F)F)nc(-c2ccccc2OC(F)(F)F)[nH]1 [Compound 25] |  | > 20 µM | > 100 µM |  | 
Cc1c(C(F)(F)F)nc(-c2ncccc2F)[nH]c1=O [Compound 45, 2-(3-Fluoropyridin-2-yl)-5-Methyl-6-(Trifluoromethyl)Pyrimidin-4(3H)-One] |  | > 20 µM | > 100 µM |  | 
O=c1cc(C(F)(F)F)nc(-c2cc(OCc3ccccc3)ccn2)[nH]1 [Compound 6] |  | 1.3 ± 0.21 µM | 2.5 ± 0.78 µM | 1.3 ± 0.21 µM (≈ 0.451 µg/mL) | 
Cc1c(C(F)(F)F)nc(-c2ccccc2)[nH]c1=O [Compound 35, 5-Methyl-2-Phenyl-6-(Trifluoromethyl)Pyrimidin-4(3H)-One] | 256 to 259 °C | > 20 µM | > 100 µM |  | 
Cc1ccccc1-c1nc(C(F)(F)F)cc(=O)[nH]1 [Compound 30, 2-(o-Tolyl)-6-(Trifluoromethyl)Pyrimidin-4(3H)-One] | 155 to 156 °C | > 20 µM | > 100 µM |  | 
O=c1cc(C(F)(F)F)nc(-c2ncccn2)[nH]1 [Compound 18, 6-(Trifluoromethyl)-[2,2′-Bipyrimidin]-4(3H)-One] | 236 to 238 °C | > 20 µM | > 100 µM |  | MTB IC90 [1]: abolished activity; HepG2 IC50 [2]: abolished activity and cytotoxicity
COc1cccnc1-c1nc(C(F)(F)F)cc(=O)[nH]1 [Compound 19, 2-(3-Methoxypyridin-2-yl)-6-(Trifluoromethyl)Pyrimidin-4(3H)-One] | 178 to 179 °C | > 20 µM | > 100 µM |  | 
N#Cc1ccc(COc2ccnc(-c3nc(C(F)(F)F)cc(=O)[nH]3)c2)cc1 [Compound 9] |  | 3.7 ± 0.85 µM | 6.1 ± 2.1 µM | 3.7 ± 0.85 µM (≈ 1.38 µg/mL) | 
Cc1c(-c2ccccc2)nc(-c2ccccn2)[nH]c1=O [Compound 48, 5-Methyl-6-Phenyl-2-(Pyridin-2-yl)Pyrimidin-4(3H)-One] | 140 to 141 °C | 9.4 ± 0.67 µM | 9.7 ± 5.5 µM |  | 
Cc1cccc(C)c1-c1nc(C(F)(F)F)c(C)c(=O)[nH]1 [Compound 43, 2-(2,6-Dimethylphenyl)-5-Methyl-6-(Trifluoromethyl)Pyrimidin-4(3H)-One] | 174 to 175 °C | > 20 µM | > 100 µM |  | MTB IC90 [1]: no antibacterial activity; HepG2 IC50 [2]: no cytotoxicity

Molecule | melting point | IC90 [1] | IC50 ([2]; Homo sapiens, HepG2, 72 h) | MIC [1, 3] | further results
Cc1c(C(F)(F)F)nc(-c2ccncc2)[nH]c1=O [Compound 23, 5-Methyl-2-(Pyridin-4-yl)-6-(Trifluoromethyl)Pyrimidin-4(3H)-One] | 228 to 230 °C | > 20 µM | > 100 µM |  | 
CC(C)Cc1c(C(F)(F)F)nc(-c2ccccn2)[nH]c1=O [Compound 14] |  | 5.8 ± 1.3 µM | 7.5 ± 1.3 µM | 5.8 ± 1.3 µM (≈ 1.72 µg/mL) | 
O=c1[nH]c(-c2ccccn2)nc(C(F)(F)F)c1-c1ccccc1 [Compound 54, 5-Phenyl-2-(Pyridin-2-yl)-6-(Trifluoromethyl)Pyrimidin-4(3H)-One] | 258 to 259 °C | 4.5 ± 0.14 µM | 11 µM |  | IC50 [2]: 10 ± 6.4 µM
O=c1cc(C(F)(F)F)nc(C2CCCCC2)[nH]1 [Compound 27, 2-Cyclohexyl-6-(Trifluoromethyl)Pyrimidin-4(3H)-One] | 198 to 199 °C | > 20 µM | 90 ± 17 µM |  | 
Cc1c(Cc2ccccc2)nc(-c2ccccn2)[nH]c1=O [Compound 47, 6-Benzyl-5-Methyl-2-(Pyridin-2-yl)Pyrimidin-4(3H)-One] | 120 to 121 °C | 5.7 ± 0.14 µM | 9.8 ± 5.7 µM |  | 
O=c1cc(C(F)(F)F)nc(-c2ncccc2F)[nH]1 [Compound 26, 2-(3-Fluoropyridin-2-yl)-6-(Trifluoromethyl)Pyrimidin-4(3H)-One] |  | > 20 µM | > 100 µM |  | 
O=c1[nH]c(-c2ccccn2)nc(C(F)(F)F)c1Cc1ccccc1 [Compound 52, 5-Benzyl-2-(Pyridin-2-yl)-6-(Trifluoromethyl)Pyrimidin-4(3H)-One] | 173 to 174 °C | 2.8 ± 0.78 µM | 7.3 ± 4.2 µM |  | 
Cc1c(C(F)(F)F)nc(-c2ncccc2Cl)[nH]c1=O [Compound 38, 2-(3-Chloropyridin-2-yl)-5-Methyl-6-(Trifluoromethyl)Pyrimidin-4(3H)-One] |  | > 20 µM | > 100 µM |  | 
Cc1cccc(C)c1-c1nc(C(F)(F)F)cc(=O)[nH]1 [Compound 29, 2-(2,6-Dimethylphenyl)-6-(Trifluoromethyl)Pyrimidin-4(3H)-One] | 201 to 202 °C | > 20 µM | > 100 µM |  | 
COc1c(C(F)(F)F)nc(-c2ccccn2)[nH]c1=O [Compound 56, 5-Methoxy-2-(Pyridin-2-yl)-6-(Trifluoromethyl)Pyrimidin-4(3H)-One] |  | 6.1 ± 0.26 µM | 5 ± 0.82 µM |  | 
CC[C@@H](CO)NCCN[C@@H](CC)CO [ethambutol, reference compound] |  |  |  | 3.3 ± 0.4 µM (≈ 0.674 µg/mL) | 
CCOC(=O)CCCc1c(C(F)(F)F)nc(-c2ccccn2)[nH]c1=O [Compound 12] |  | 3.1 ± 0.57 µM | 10 ± 4.3 µM | 3.1 ± 0.57 µM (≈ 1.1 µg/mL) | 
COc1ccccc1-c1nc(C(F)(F)F)c(C)c(=O)[nH]1 [Compound 34, 2-(2-Methoxyphenyl)-5-Methyl-6-(Trifluoromethyl)Pyrimidin-4(3H)-One] | 158 to 160 °C |  | 95 ± 9.5 µM |  | 
COC(=O)Cc1ccc(OCc2ccnc(-c3nc(C(F)(F)F)cc(=O)[nH]3)c2)cc1 [Compound 7] |  | 3.3 ± 0.71 µM | 7.1 ± 0.14 µM | 3.3 ± 0.71 µM (≈ 1.38 µg/mL) | 
CO[C@H]1/C=C/O[C@@]2(C)Oc3c(C)c(O)c4c(O)c(c(/C=N/N5CCN(C)CC5)c(O)c4c3C2=O)NC(=O)/C(C)=C\C=C\[C@H](C)[C@H](O)[C@@H](C)[C@@H](O)[C@@H](C)[C@H](OC(C)=O)[C@@H]1C [rifampicin, reference compound] |  |  |  |  | MIC ([1]; reference drug in this assay): 0.008 ± 0.0002 µM (≈ 0.00658 µg/mL)
CCCc1c(C(F)(F)F)nc(-c2ccccn2)[nH]c1=O [Compound 13] |  | 10 ± 1.3 µM | 12 ± 1.4 µM | 10 ± 1.3 µM (≈ 2.83 µg/mL) | 
N#Cc1ccc(OCc2ccnc(-c3nc(C(F)(F)F)cc(=O)[nH]3)c2)cc1 [Compound 15] |  | 5.3 ± 1.3 µM | 7.4 ± 1.6 µM | 5.3 ± 1.3 µM (≈ 1.97 µg/mL) | 
Cc1c(C(F)(F)F)nc(-c2cc(COc3ccc(O)cc3)ccn2)[nH]c1=O [Compound 3] |  | 7.6 ± 0.85 µM | 7.4 ± 0.28 µM | 7.6 ± 0.85 µM (≈ 2.87 µg/mL) | 
O=c1cc(C(F)(F)F)nc(-c2ncccc2O)[nH]1 [Compound 17, 2-(3-Hydroxypyridin-2-yl)-6-(Trifluoromethyl)Pyrimidin-4(3H)-One] |  | 3.3 ± 1.1 µM | 16 ± 7.6 µM |  | 
O=c1cc(C(F)(F)F)nc(-c2cc(CCc3ccc(O)cc3)ccn2)[nH]1 [Compound 4] |  |  |  | 4.2 ± 2.1 µM (≈ 1.52 µg/mL) | 
O=C1c2ccccc2-c2nn3c(=O)cc(C(F)(F)F)nc3nc21 [Compound 1] |  |  |  | 3.1 ± 0.49 µM (≈ 0.986 µg/mL) | 
O=c1cc(C(F)(F)F)nc(-c2ncccc2Cl)[nH]1 [Compound 21, 2-(3-Chloropyridin-2-yl)-6-(Trifluoromethyl)Pyrimidin-4(3H)-One] |  | > 20 µM | > 100 µM |  | 
